Assays:
STING [1] = biological target: T1, STING (Homo sapiens, UniProt Q86WV6); experiment: IFN β release from human PBMC cells stimulated by compound (ELISA); assay type: cell-based; details: LPS 10 ng/ml, cultured overnight
T1 construct: host or cells: human PBMCs
Experimental: Example 23: Activation Effect of Compound on Type I Interferon Pathway (ISG) Produced by Human Peripheral Blood Mononuclear Cell Line PBMC Cells
In this experiment, the function of STING agonist was evaluated by detecting the changes of type I interferon IFN β produced by compound stimulating human peripheral blood mononuclear cell line PBMC cells (AllCells, Cat #: PB005F). Before use, cryopreserved PBMCs were thawed in RPMI1640 medium and resuscitated overnight. The test compound was dissolved into DMSO and formulated as a mother liquor with a concentration of 10 mM. Before testing, the compound was diluted to 100 times of the working concentration (the working concentration was 30, 10, 3.33, 1.11, 0.370, 0.123, 0.0412, 0.0137 uM, respectively). PBMCs were collected and adjusted to a cell concentration of 5×10^5/ml. LPS was added to PBMCs at a final concentration of 10 ng/ml. In the 96-well cell culture plate, 200 ul PBMCs (1×10^5 cells per well) were added to each well. Then 2 ul diluted compound per well (duplicate wells, the final concentration of DMSO in each well was 1%) was added. Then a pipette was used to carefully mix the cells and the compound evenly. 2 ul DMSO (1% of final concentration) was added to the negative control. The cells were cultured overnight in an incubator at 37° C. The cell culture supernatant was collected to detect the concentration of type I interferon IFN β. The concentration of IFNβ was determined by ELISA kit of solid-phase antibody R&D-MAB8144-100 and detecting antibody R&D-MAB8143-100 (Biotinylated), converted into […] concentration according to standard curve, and EC50 value was calculated by GraphPad 5.0 fitting calibration curve.

STING [2] = biological target: T2, STING (Homo sapiens, UniProt Q86WV6, G230A/H232R/R293Q/R71H); experiment: Type I interferon pathway (ISG) luciferase reporter in human THP1-Dual cells; assay type: cell-based; details: test concentration 10 μM, 24 hours, ratio of LUM of compound to LUM of blank control
T2 construct: THP1-Dual cells in the experiment were purchased from InvivoGen company; host or cells: THP1-Dual cells
T2 sequence (Q86WV6 whole entry R71H/G230A/H232R/R293Q): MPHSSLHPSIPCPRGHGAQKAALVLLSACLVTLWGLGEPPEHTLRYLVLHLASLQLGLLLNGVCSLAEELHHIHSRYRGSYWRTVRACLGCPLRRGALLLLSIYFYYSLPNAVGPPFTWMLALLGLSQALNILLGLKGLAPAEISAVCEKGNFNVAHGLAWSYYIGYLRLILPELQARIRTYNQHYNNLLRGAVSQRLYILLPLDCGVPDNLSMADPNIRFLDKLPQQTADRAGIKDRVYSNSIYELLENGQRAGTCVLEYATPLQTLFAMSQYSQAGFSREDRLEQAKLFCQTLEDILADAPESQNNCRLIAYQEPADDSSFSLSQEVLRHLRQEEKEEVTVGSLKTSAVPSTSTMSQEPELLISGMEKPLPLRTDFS
Experimental: In this experiment, the ability of compounds to activate STING was evaluated by detecting the ability of compounds to stimulate the production of IFN-β in human peripheral blood mononuclear cell line THP1-Dual cells. THP1-Dual cells in the experiment were purchased from InvivoGen company. […] THP1-Dual cells were counted, cell concentration was adjusted to be 1×10^6/ml, and 180 μl of cells was added to each well for incubation. […] In addition, the blank group was added with 200 μl of culture solution. After 24 hours, 20 μl of culture solution was took from each well to a new bottom transparent 96-well plate, and 50 μl luciferase detection reagent QUANTI-Luc™ was added, the fluorescence value was immediately determined. […] The data were described by the ratio of the LUM of compound to the LUM of blank control.

EMT6 breast cancer = EMT6 breast cancer orthotopic transplantation tumor model; assay type: in vivo, Balb/C female mice; details: EMT6, Balb/C mice, 1 mg/kg, 1st, 4th and 9th days after grouping, vs negative control, FIG. 2
Experimental: Example 26: The Efficacy Study of the Compound of the Present Invention in the EMT6 Breast Cancer Orthotopic Transplantation Tumor Model
In this experiment, 4-6 weeks old Balb/C female mice were used, and EMT6 cells (2.5*10^5) were injected subcutaneously into axils of each mouse. The tumor growth of mice was observed. Grouping was started when the tumor volume was 50-100 mm^3. The compound 19 of the present invention and the negative control were administrated on 1st, 4th and 9th days after grouping. The dosage of compound 19 of the present invention was 1 mg/kg. The experimental results were evaluated in the form of tumor volume growth curves, and the experimental results were shown in FIG. 2.

CT26 colon cancer = CT26 colon cancer subcutaneous transplantation tumor model; assay type: in vivo, Balb/C female mice; details: CT26, Balb/C mice, 0.1 mg/kg and 0.3 mg/kg, 1st, 4th and 7th days after grouping, vs negative control, FIG. 1
Experimental: Example 25: The Efficacy Study of the Compound of the Present Invention in the CT26 Colon Cancer Subcutaneous Transplantation Tumor Model
In this experiment, 4-6 weeks old Balb/C female mice were used, and CT26 cells (2.5*10^5) were injected subcutaneously into axils of each mouse. The tumor growth of mice was observed. Grouping was started when the tumor volume was 50-100 mm^3. The compound 19 of the present invention and the negative control were administrated. The compound 19 of the present invention and the negative control were administrated on 1st, 4th and 7th days after grouping. The dosage of the compound 19 in each group was 0.1 mg/kg and 0.3 mg/kg respectively. The experimental results were evaluated in the form of tumor volume growth curves, and the experimental results were shown in FIG. 1.

T1 sequence (Q86WV6 whole entry H232R): as the sequence (Q86WV6 whole entry R71H/G230A/H232R/R293Q) above, with H71R, A230G, Q293R counted along it

Row | Structure (SMILES) | Fold change (Ratio to control) (STING [2]) | other results
1 | CCn1nc(C)cc1C(=O)Nc1nc2cc(C(N)=O)cc(OC)c2n1CCCCn1c(NC(=O)c2cc(C)nn2CC)nc2cc(C(N)=O)c3c(c21)CC(C)(C)O3 [Example 1, 1-(4-(5-carbamoyl-2-(1-ethyl-3-methyl-1H-pyrazol-5-formamido)-7-methoxy-1H-benzo[d]imidazol-1-yl)butyl)-2-(1-ethyl-3-methyl-1H-pyrazol-5-formamido)-7,7-dimethyl-7,8-dihydro-1H-benzofuran[4,5-d]imidazol-5-formamide] | – | EC50 (STING [1]): 362 nM
2 | C=CCn1nc(C)cc1C(=O)Nc1nc2cc(C(N)=O)cc(OCCCO)c2n1C/C=C/Cn1c(NC(=O)c2cc(C)nn2CC=C)nc2cc(C(N)=O)c3oc(C)cc3c21 [Example 9] | 148.64 | –
3 | C#CCn1nc(C)cc1C(=O)Nc1nc2cc(C(N)=O)cc(OCCCO)c2n1C/C=C/Cn1c(NC(=O)c2cc(C)nn2CC#C)nc2cc(C(N)=O)c3oc(C)cc3c21 [Example 10] | 13.14 | –
4 | CCn1nc(C)cc1C(=O)Nc1nc2cc(C(N)=O)cc(OCCCN3CCOCC3)c2n1C/C=C/Cn1c(NC(=O)c2cc(C)nn2CC)nc2cc(C(N)=O)c3oc(C)cc3c21 [Example 19] | 90.48 | anti-tumor effect (tumor volume growth curves) (EMT6 breast cancer): significant anti-tumor effect; anti-tumor effect (tumor volume growth curves) (CT26 colon cancer): significant anti-tumor effect
5 | Cc1cc(C(=O)Nc2nc3cc(C(N)=O)cc(OCCCN4CCOCC4)c3n2C/C=C/Cn2c(NC(=O)c3cc(C)nn3CC(F)(F)F)nc3cc(C(N)=O)c4oc(C)cc4c32)n(CC(F)(F)F)n1 [Example 20] | 159.71 | –
6 | CCn1nc(C)cc1C(=O)Nc1nc2cc(C(N)=O)ccc2n1C/C=C/Cn1c(NC(=O)c2cc(C)nn2CC)nc2cc(C(N)=O)cc(OCCCO)c21 [GSK compound 1, reference compound] | 80.54 | –
7 | CCn1nc(C)cc1C(=O)Nc1nc2cc(C(N)=O)cc(OC)c2n1C/C=C/Cn1c(NC(=O)c2cc(C)nn2CC)nc2cc(C(N)=O)cc(OCCCN3CCOCC3)c21 [GSK compound 3, reference compound] | 70.83 | –

More lines, main results first:

Row | Fold change (Ratio to control) (STING [2]) | Structure (SMILES) | other results
8 | 53.15 | CCn1nc(C)cc1C(=O)Nc1nc2cc(C(N)=O)cc(OC)c2n1CCCCn1c(NC(=O)c2cc(C)nn2CC)nc2cc(C(N)=O)c3oc(C)cc3c21 [Example 2] | EC50 (STING [1]): 103 nM
9 | 62.82 | CCn1nc(C)cc1C(=O)Nc1nc2cc(C(N)=O)cc(OC)c2n1C/C=C/Cn1c(NC(=O)c2cc(C)nn2CC)nc2cc(C(N)=O)c3oc(C)cc3c21 [Example 3, (E)-1-(4-(5-carbamoyl-2-(1-ethyl-3-methyl-1H-pyrazol-5-formamido)-7-methoxy-1H-benzo[d]imidazol-1-yl)but-2-en-1-yl)-2-(1-ethyl-3-methyl-1H-pyrazol-5-formamido)-7-methyl-1H-benzofuran[4,5-d]imidazol-5-formamide] | EC50 (STING [1]): 4.92 nM
10 | 66.65 | COc1cc(C(N)=O)cc2nc(NC(=O)c3cc(C)nn3CC3CC3)n(C/C=C/Cn3c(NC(=O)c4cc(C)nn4CC4CC4)nc4cc(C(N)=O)c5oc(C)cc5c43)c12 [Example 5] | –
11 | 86.31 | COc1cc(C(N)=O)cc2nc(NC(=O)c3cc(C)nn3CC(F)(F)F)n(C/C=C/Cn3c(NC(=O)c4cc(C)nn4CC(F)(F)F)nc4cc(C(N)=O)c5oc(C)cc5c43)c12 [Example 6] | –
12 | 175.49 | C=CCn1nc(C)cc1C(=O)Nc1nc2cc(C(N)=O)cc(OC3COC3)c2n1C/C=C/Cn1c(NC(=O)c2cc(C)nn2CC=C)nc2cc(C(N)=O)c3oc(C)cc3c21 [Example 18] | –
